Test results taken from paper PMC8882856, “The affinity and selectivity of α‐adrenoceptor antagonists, antidepressants and antipsychotics for the human α2A, α2B, and α2C‐adrenoceptors and comparison with human α1 and β‐adrenoceptors” (Pharmacology Research & Perspectives, 2022).

molecular target: human β2‐adrenoceptor (Homo sapiens, UniProt P07550); test: not given; type: binding; conditions: ^3H‐CGP12177; log value
Sequence (P07550 whole entry): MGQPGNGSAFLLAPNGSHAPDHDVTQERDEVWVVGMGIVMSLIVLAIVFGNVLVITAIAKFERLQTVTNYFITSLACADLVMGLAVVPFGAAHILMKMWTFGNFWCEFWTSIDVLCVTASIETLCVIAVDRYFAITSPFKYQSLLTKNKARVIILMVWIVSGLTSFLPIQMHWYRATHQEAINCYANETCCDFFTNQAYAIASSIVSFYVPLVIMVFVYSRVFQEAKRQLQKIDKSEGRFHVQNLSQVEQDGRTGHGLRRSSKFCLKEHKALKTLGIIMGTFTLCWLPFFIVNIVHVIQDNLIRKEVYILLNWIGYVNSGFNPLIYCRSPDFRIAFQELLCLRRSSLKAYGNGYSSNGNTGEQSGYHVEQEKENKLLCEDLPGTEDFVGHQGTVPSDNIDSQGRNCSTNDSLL

Row | Structure (SMILES) | IC50 (log) β2, IC50>top concentration used
1 | COc1ccccc1N1CCN(CCn2c(=O)[nH]c3c([nH]c4ccccc43)c2=O)CC1 [3‐MPPI] | IC50>−4
2 | COc1cc2nc(N3CCN(C(=O)COc4c(OC)cccc4C(C)C)CC3)nc(N)c2cc1OC [Rec15‐2615] | IC50>−4

same assay, conditions: ^3H‐CGP12177; log value; read-out: IC50 (log) β2, IC50>top concentration used (converted)

Row | Structure (SMILES) | IC50 [µM]
3 | COc1ccccc1N1CCN(CCN2C(=O)CC3(CCCC3)CC2=O)CC1 [BMY7378] | > 100
4 | CN(C)CCC=C1c2ccccc2CCc2ccccc21 [amitriptyline] | > 100
5 | c1ccc2c(c1)OCC(C1=NCCN1)O2 (stereo not shown) [idazoxan] | > 1000
6 | CC(C(O)c1ccc(O)cc1)N1CCC(Cc2ccccc2)CC1 (stereo not shown) [ifenprodil] | > 10
7 | CN(C)CCCN1c2ccccc2CCc2ccccc21 [imipramine] | > 100
8 | O=C1[C@@H]2[C@H]3CC[C@H](C3)[C@@H]2C(=O)N1C[C@@H]1CCCC[C@H]1CN1CCN(c2nsc3ccccc23)CC1 [lurasidone] | > 10
9 | Fc1ccc([C@@H]2CCNC[C@H]2COc2ccc3c(c2)OCO3)cc1 [paroxetine] | > 31.6
10 | CC(CN1c2ccccc2Sc2ccccc21)N(C)C (stereo not shown) [promethazine] | > 100
11 | O=C1NCN(c2ccccc2)C12CCN(CC1COc3ccccc3O1)CC2 (stereo not shown) [spiroxatrine] | > 31.6
12 | CCN1CCCC1CNC(=O)c1cc(S(N)(=O)=O)ccc1OC (stereo not shown) [sulpiride] | > 1000

same assay, conditions: ^3H‐CGP12177 whole cell binding; log values, mean ± s.e.mean; ^app = apparent KD; 'no binding to' = log top concentration

Row | Structure (SMILES) | Log KD β2
13 | N=C(CC(O)COc1ccccc1-c1ccccc1)N1CCCCC1 (stereo not shown) [AH11110A] | −6.36 ± 0.07

molecular target: T1, human α2A‐adrenoceptor (Homo sapiens, UniProt P08913); test: not given; conditions: not given
T1 sequence (P08913 1-465): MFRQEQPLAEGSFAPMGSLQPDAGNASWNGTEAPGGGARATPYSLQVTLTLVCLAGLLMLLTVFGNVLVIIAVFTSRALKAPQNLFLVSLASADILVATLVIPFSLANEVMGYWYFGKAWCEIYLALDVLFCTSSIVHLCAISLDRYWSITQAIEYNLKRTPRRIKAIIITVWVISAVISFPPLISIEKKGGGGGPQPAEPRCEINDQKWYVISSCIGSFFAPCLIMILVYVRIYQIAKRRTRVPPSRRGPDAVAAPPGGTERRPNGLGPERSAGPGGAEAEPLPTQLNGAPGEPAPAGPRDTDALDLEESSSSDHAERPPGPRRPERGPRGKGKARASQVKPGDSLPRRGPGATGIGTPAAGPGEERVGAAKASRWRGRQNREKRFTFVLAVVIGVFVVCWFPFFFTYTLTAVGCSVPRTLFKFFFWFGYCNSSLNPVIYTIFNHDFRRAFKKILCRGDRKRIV

Row | Structure (SMILES) | Kd [µM]
14 | COc1ccccc1N1CCN(CCn2c(=O)[nH]c3c([nH]c4ccccc43)c2=O)CC1 [3‐MPPI] | 0.214
15 | N=C(CC(O)COc1ccccc1-c1ccccc1)N1CCCCC1 (stereo not shown) [AH11110A] | 20
16 | COc1cc2nc(N3CCN(C(=O)COc4c(OC)cccc4C(C)C)CC3)nc(N)c2cc1OC [Rec15‐2615] | 2.95

molecular target: T2, human α2C‐adrenoceptor (Homo sapiens, UniProt P18825); test: not given; conditions: not given
T2 sequence (P18825 1-462): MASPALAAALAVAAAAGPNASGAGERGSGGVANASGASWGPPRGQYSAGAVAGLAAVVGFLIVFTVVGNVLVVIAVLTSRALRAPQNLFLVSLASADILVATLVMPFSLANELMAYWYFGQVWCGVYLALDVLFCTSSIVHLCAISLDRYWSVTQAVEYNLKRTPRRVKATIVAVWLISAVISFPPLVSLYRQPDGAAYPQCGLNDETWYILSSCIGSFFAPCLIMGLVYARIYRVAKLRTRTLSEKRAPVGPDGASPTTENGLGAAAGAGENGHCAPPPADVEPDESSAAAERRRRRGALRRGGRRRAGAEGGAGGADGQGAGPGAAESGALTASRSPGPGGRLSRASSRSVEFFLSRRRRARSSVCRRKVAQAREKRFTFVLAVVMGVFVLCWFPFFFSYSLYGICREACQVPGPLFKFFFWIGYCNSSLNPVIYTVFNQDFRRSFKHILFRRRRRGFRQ

Row | Structure (SMILES) | Kd [µM]
17 | COc1ccccc1N1CCN(CCn2c(=O)[nH]c3c([nH]c4ccccc43)c2=O)CC1 [3‐MPPI] | 0.0977
18 | N=C(CC(O)COc1ccccc1-c1ccccc1)N1CCCCC1 (stereo not shown) [AH11110A] | 13.8
19 | COc1cc2nc(N3CCN(C(=O)COc4c(OC)cccc4C(C)C)CC3)nc(N)c2cc1OC [Rec15‐2615] | 0.275

molecular target: T3, human β1‐adrenoceptor (Homo sapiens, UniProt P08588); test: not given; conditions: ^3H‐CGP12177; log value
T3 sequence (P08588 whole entry): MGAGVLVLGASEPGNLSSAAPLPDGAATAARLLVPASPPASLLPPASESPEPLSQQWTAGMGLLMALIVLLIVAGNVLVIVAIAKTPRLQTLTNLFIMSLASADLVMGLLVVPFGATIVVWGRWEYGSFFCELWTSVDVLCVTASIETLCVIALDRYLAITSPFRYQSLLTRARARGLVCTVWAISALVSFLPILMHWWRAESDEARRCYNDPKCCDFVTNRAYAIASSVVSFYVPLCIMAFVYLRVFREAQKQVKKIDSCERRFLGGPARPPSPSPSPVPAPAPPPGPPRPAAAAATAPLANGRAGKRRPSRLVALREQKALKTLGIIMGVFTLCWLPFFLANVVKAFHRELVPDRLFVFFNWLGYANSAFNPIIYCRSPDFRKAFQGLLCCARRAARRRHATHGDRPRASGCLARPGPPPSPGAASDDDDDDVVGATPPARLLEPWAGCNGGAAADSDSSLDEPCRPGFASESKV

Row | Structure (SMILES) | IC50 (log) β1, IC50>top concentration used
20 | COc1cc2nc(N3CCN(C(=O)COc4c(OC)cccc4C(C)C)CC3)nc(N)c2cc1OC [Rec15‐2615] | IC50>−4

same assay, conditions: ^3H‐CGP12177 whole cell binding; log values, mean ± s.e.mean; ^app = apparent KD; 'no binding to' = log top concentration

Row | Structure (SMILES) | Log KD β1
21 | COc1ccccc1N1CCN(CCn2c(=O)[nH]c3c([nH]c4ccccc43)c2=O)CC1 [3‐MPPI] | No binding to −4
22 | N=C(CC(O)COc1ccccc1-c1ccccc1)N1CCCCC1 (stereo not shown) [AH11110A] | −6.23 ± 0.07

same assay, conditions: given as log KD (negative values); 3H-CGP12177 whole cell binding, CHO cells; mean ± s.e.mean

Row | Structure (SMILES) | Log KD β1
23 | COc1ccccc1N1CCN(CCn2c(=O)[nH]c3c([nH]c4ccccc43)c2=O)CC1 [3‐MPPI] | No binding to -4

molecular target: T1, human α2A‐adrenoceptor; test: cell-based; conditions: not given

Row | Structure (SMILES) | Kd [µM]
24 | COc1ccccc1N1CCN(CCN2C(=O)CC3(CCCC3)CC2=O)CC1 [BMY7378] | 5.01
25 | CN(C)CCC=C1c2ccccc2CCc2ccccc21 [amitriptyline] | 1.38
26 | CC(C(O)c1ccc(O)cc1)N1CCC(Cc2ccccc2)CC1 (stereo not shown) [ifenprodil] | 0.977
27 | CN(C)CCCN1c2ccccc2CCc2ccccc21 [imipramine] | 5.62
28 | O=C1NCN(c2ccccc2)C12CCN(CC1COc3ccccc3O1)CC2 (stereo not shown) [spiroxatrine] | 0.107
29 | CCN1CCCC1CNC(=O)c1cc(S(N)(=O)=O)ccc1OC (stereo not shown) [sulpiride] | 31.6

molecular target: T4, human α2B‐adrenoceptor (Homo sapiens, UniProt P18089); test: cell-based; conditions: not given
T4 sequence (P18089 1-450): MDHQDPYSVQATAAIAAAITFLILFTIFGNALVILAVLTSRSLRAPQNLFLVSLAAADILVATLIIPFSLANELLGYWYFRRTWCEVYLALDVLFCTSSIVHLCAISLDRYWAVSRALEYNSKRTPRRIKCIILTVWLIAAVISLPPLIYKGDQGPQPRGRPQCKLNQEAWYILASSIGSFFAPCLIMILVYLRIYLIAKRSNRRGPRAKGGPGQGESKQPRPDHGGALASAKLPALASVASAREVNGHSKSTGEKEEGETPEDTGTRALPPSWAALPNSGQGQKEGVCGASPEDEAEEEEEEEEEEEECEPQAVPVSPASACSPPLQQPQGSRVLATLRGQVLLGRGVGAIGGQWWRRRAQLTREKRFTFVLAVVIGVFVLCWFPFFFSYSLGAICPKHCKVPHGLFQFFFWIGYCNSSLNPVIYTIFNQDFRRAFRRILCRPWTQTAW

Row | Structure (SMILES) | Kd [µM]
30 | COc1ccccc1N1CCN(CCN2C(=O)CC3(CCCC3)CC2=O)CC1 [BMY7378] | 10.5

molecular target: T2, human α2C‐adrenoceptor; test: cell-based; conditions: not given

Row | Structure (SMILES) | Kd [µM]
31 | COc1ccccc1N1CCN(CCN2C(=O)CC3(CCCC3)CC2=O)CC1 [BMY7378] | 0.55
32 | CN(C)CCC=C1c2ccccc2CCc2ccccc21 [amitriptyline] | 0.214
33 | CC(C(O)c1ccc(O)cc1)N1CCC(Cc2ccccc2)CC1 (stereo not shown) [ifenprodil] | 0.158
34 | CN(C)CCCN1c2ccccc2CCc2ccccc21 [imipramine] | 1.29
35 | O=C1[C@@H]2[C@H]3CC[C@H](C3)[C@@H]2C(=O)N1C[C@@H]1CCCC[C@H]1CN1CCN(c2nsc3ccccc23)CC1 [lurasidone] | 0.0457
36 | CC(CN1c2ccccc2Sc2ccccc21)N(C)C (stereo not shown) [promethazine] | 2.88
37 | O=C1NCN(c2ccccc2)C12CCN(CC1COc3ccccc3O1)CC2 (stereo not shown) [spiroxatrine] | 0.00182

molecular target: T3, human β1‐adrenoceptor; test: cell-based; conditions: not given

Row | Structure (SMILES) | IC50 [µM]
38 | CN(C)CCC=C1c2ccccc2CCc2ccccc21 [amitriptyline] | > 100
39 | c1ccc2c(c1)OCC(C1=NCCN1)O2 (stereo not shown) [idazoxan] | > 1000
40 | CC(C(O)c1ccc(O)cc1)N1CCC(Cc2ccccc2)CC1 (stereo not shown) [ifenprodil] | > 10
41 | CN(C)CCCN1c2ccccc2CCc2ccccc21 [imipramine] | > 100
42 | Fc1ccc([C@@H]2CCNC[C@H]2COc2ccc3c(c2)OCO3)cc1 [paroxetine] | > 31.6
43 | CC(CN1c2ccccc2Sc2ccccc21)N(C)C (stereo not shown) [promethazine] | > 100
44 | O=C1NCN(c2ccccc2)C12CCN(CC1COc3ccccc3O1)CC2 (stereo not shown) [spiroxatrine] | > 31.6
45 | CCN1CCCC1CNC(=O)c1cc(S(N)(=O)=O)ccc1OC (stereo not shown) [sulpiride] | > 1000

molecular target: T4, human α2B‐adrenoceptor; test: ^3H‐rauwolscine whole cell competition binding, CHO‐α2B cells; conditions: not given

Row | Structure (SMILES) | Kd [µM]
46 | CC(C(O)c1ccc(O)cc1)N1CCC(Cc2ccccc2)CC1 (stereo not shown) [ifenprodil] | 0.724
47 | CN(C)CCCN1c2ccccc2CCc2ccccc21 [imipramine] | 0.437
48 | O=C1[C@@H]2[C@H]3CC[C@H](C3)[C@@H]2C(=O)N1C[C@@H]1CCCC[C@H]1CN1CCN(c2nsc3ccccc23)CC1 [lurasidone] | 0.0437

same assay, conditions: ^3H‐rauwolscine; top concentration inhibited 50% or less of specific binding; log value

Row | Structure (SMILES) | IC50 (log) α2B, IC50>top concentration used
49 | COc1ccccc1N1CCN(CCn2c(=O)[nH]c3c([nH]c4ccccc43)c2=O)CC1 [3‐MPPI] | IC50>−4
50 | N=C(CC(O)COc1ccccc1-c1ccccc1)N1CCCCC1 (stereo not shown) [AH11110A] | IC50>−4
51 | COc1cc2nc(N3CCN(C(=O)COc4c(OC)cccc4C(C)C)CC3)nc(N)c2cc1OC [Rec15‐2615] | IC50>−4.5

same assay, conditions: ratio of KD values

Row | Structure (SMILES) | Selectivity ratio α2A vs α2B (higher affinity for α2B) | Selectivity ratio α2B vs α2C (higher affinity for α2B)
52 | CC(C(O)c1ccc(O)cc1)N1CCC(Cc2ccccc2)CC1 (stereo not shown) [ifenprodil] | 1.3 | –
53 | CN(C)CCCN1c2ccccc2CCc2ccccc21 [imipramine] | 12.9 | 3.0

molecular target: T2, human α2C‐adrenoceptor; test: ^3H‐rauwolscine whole cell competition binding, CHO‐α2C cells; conditions: not given

Row | Structure (SMILES) | IC50 [µM]
54 | Fc1ccc([C@@H]2CCNC[C@H]2COc2ccc3c(c2)OCO3)cc1 [paroxetine] | > 10

same assay, conditions: ratio of KD values

Row | Structure (SMILES) | Selectivity ratio α2A vs α2C (higher affinity for α2C) | Selectivity ratio α2B vs α2C (higher affinity for α2C)
55 | COc1ccccc1N1CCN(CCn2c(=O)[nH]c3c([nH]c4ccccc43)c2=O)CC1 [3‐MPPI] | 2.2 | –
56 | N=C(CC(O)COc1ccccc1-c1ccccc1)N1CCCCC1 (stereo not shown) [AH11110A] | 1.4 | –
57 | COc1cc2nc(N3CCN(C(=O)COc4c(OC)cccc4C(C)C)CC3)nc(N)c2cc1OC [Rec15‐2615] | 10.7 | –
58 | CC(C(O)c1ccc(O)cc1)N1CCC(Cc2ccccc2)CC1 (stereo not shown) [ifenprodil] | 6.2 | 4.6
59 | CN(C)CCCN1c2ccccc2CCc2ccccc21 [imipramine] | 4.4 | –
